# pIC50: −log10 of the molar value. Where “and” joins values, the source holds several entries; their conditions need not be identical. Equal values may be shown once.
# System: P. falciparum 3D7 growth, pLDH absorbance
# Test: blood-stage malaria parasite growth potency – strain 3D7, dose response (AID 2305)
row,SMILES,pIC50
1,CCC(C)NC(=O)Nc1ccc(-c2cccc(-c3nc4ccccc4[nH]3)c2)cc1 (stereo not given),6.09
2,CC1CCN(c2nc(C(=O)Nc3cccc4c3CCCC4)c(C(C)C)s2)CC1,5.98
3,CC[C@H]1CN2CC[C@H]1C[C@H]2[C@H](O)c1ccnc2ccc(C#N)cc12,6.82
4,Cc1nc2c(=O)sc3ccccc3c2n1Cc1ccccc1,6.06
5,Cc1cc(NN=Cc2cccc([N+](=O)[O-])c2)c2ccc(C(F)(F)F)cc2n1,6.06
6,COc1cc(-c2nc(-c3ccccc3)c(-c3ccc([N+](=O)[O-])cc3)[nH]2)cc(OC)c1O,6.08
7,O=C(/C=C/c1ccc(-c2nc3ccc(Cl)cc3[nH]2)cc1)NCc1cccc(F)c1,6.19
8,N#Cc1cccc(COC(=O)C2=C(COc3ccccc3Cl)NC(=O)NC2c2c[nH]c3cnccc23)c1 (stereo not given),6.10
9,Cc1cc(NC2CCN(CC3CCCCC3)C2)nc(Nc2ccc(Br)cc2)n1 (stereo not given),6.24
10,C[C@H](N[C@H]1CCCc2c1[nH]c1ccc(Br)cc21)c1ccccc1,6.66
11,COc1ccc2nccc(NN=Cc3ccc(F)cc3)c2c1,6.14
12,CCC1CN2CCc3c([nH]c4ccccc34)[C@@H]2C[C@@H]1CC1NCCc2cc(OC)c(OC)cc21 (stereo not given in full),6.07 and 6.08
13,Oc1ccc(Nc2nc(NCc3ccccc3)c3ccccc3n2)cc1,6.72
14,Cc1ccc2[nH]ncc2c1N(CC1CCCCC1)c1ccnc(Nc2ccc(OCC(O)CN3CC=CCC3)cc2)n1 (stereo not given),6.21
15,Cc1cccc(C)c1OC(=O)[C@@H](C)[C@@H](O)C1(Sc2ccccc2)CCN(C)CC1,6.14
16,NC(=O)C1CCN(Cc2cccc(-c3cccc(-c4nc5ccc(F)cc5[nH]4)c3)c2)CC1,6.07
17,CS(=O)(=O)c1ccc2nc(-c3cc(-c4ccc(OCCN5CCOCC5)cc4)cnc3N)[nH]c2c1,5.97
18,Cn1cncc1CCN(Cc1ccc(-c2ccc(C(F)(F)F)cc2)cc1)C(=O)Cn1c(SCc2cccc(F)c2F)cc(=O)c2ccccc21,6.00
19,N#Cc1ccc(C=Cc2nccc3c2[nH]c2ccccc23)cc1,6.19
20,Oc1c(Cl)cc(Nc2nccc(Nc3ccc(Oc4ccccc4)cc3)n2)cc1Cl,6.10
21,O=C(O)/C=C/c1cccc(F)c1F,7.00
22,CCN(CC)CCCC(C)Nc1c2ccccc2nc2ccc3ccccc3c12 (stereo not given),5.98
23,N#Cc1c(N)n(CCc2ccc(F)cc2)c2nc3ccccc3nc12,6.01
24,Cn1cncc1C(=O)Nc1ccc(-c2ccc(-c3nc4ccc(C(F)(F)F)cc4[nH]3)cc2)cc1,6.25

row,SMILES,pIC50
1,CN1CCN(CCCN(Cc2cccc(-c3ccc(CNCc4ccc5c(c4)OCO5)cc3)c2)C(=O)Nc2ccccc2)CC1,6.17
2,CC[C@H]1CN2CC[C@@H]1C[C@H]2[C@H](O)c1cc(N2CCC(O)CC2)nc2ccc(OC)cc12,6.77
3,COc1ccc2nc(SC(C)C(=O)c3c[nH]c4ccccc34)[nH]c2c1 (stereo not given),5.89
4,COc1ccc(CC(=O)NC(CCN2CCC3(CC2)CN(S(C)(=O)=O)c2ccccc23)c2ccc(Cl)c(Cl)c2)cc1OC (stereo not given),6.00
5,FC(F)(F)c1ccc2nc(-c3ccc(-c4ccc(CN5CCN(c6ccncc6)CC5)cc4)s3)[nH]c2c1,6.82
6,COc1cc2ncnc(Nc3ccc(OCc4ccccc4Br)c(OC)c3)c2cc1OC,6.37
7,O=C(/C=C/c1ccc(Cl)c(Cl)c1)NCCCCCN1CCCN(C(=O)Nc2ccc(F)c(Cl)c2)CC1,6.10
8,COc1ccc2nccc(N3CCC(NCCNCc4cc5c(cn4)OCCO5)C3)c2n1 (stereo not given),6.24
9,CN1CCN(Cc2cccc(Nc3nccc(Nc4ccc(Oc5ccccc5)cc4)n3)c2)CC1,6.52
10,O=C(Nc1ccc(Cl)c(Cl)c1)N[C@H]1CCN(CCCCCNC(=O)[C@@H]2C[C@H]2c2ccc(Cl)c(Cl)c2)C1,5.99
11,COc1ccc(-c2nnc(Sc3ccc(C#N)c([N+](=O)[O-])c3)n2CC(C)C)cc1,6.09
12,CCc1ccc(NC(=O)N(CCCN2CCN(C)CC2)Cc2csc(-c3ccc(CNCc4ccccc4)cc3)n2)cc1,6.00
13,CN(CC1CCC(NC(=O)/C=C/c2ccc(Cl)c(Cl)c2)CC1)C1CCC(c2c[nH]c3ccccc23)CC1 (stereo not given),6.08
14,COc1ccc(O)c(C(=O)c2cc(C(=O)NC3CCCCC3)c(=O)n(C3CCCCC3)c2)c1,6.18
15,CS(=O)(=O)c1ccc(CNCc2ccc(-c3ccc(-c4nc5ccc(C(F)(F)F)cc5[nH]4)s3)cc2)cc1,6.80
16,COc1ccc2nccc([C@@H](O)CN3CCC(NCc4cc5ccccc5nn4)CC3)c2c1,5.92
17,N#Cc1cccc(-c2cccc(C(=O)NC3CCC(CCN4CCc5ccc(C#N)cc5CC4)CC3)c2)c1 (stereo not given),6.59
18,O=C1COc2ccc3ccccc3c21,6.15
19,COc1cc(NC(=O)Nc2ccnc3ccccc23)cc(OC)c1,6.33
20,CCCCN1CCN(CCCCNc2c3ccccc3nc3ccccc23)CC1,6.77
21,COc1ccc2[nH]cc(C3CCN(CCCCCNC(=O)c4ccc(-c5ccccc5)cc4)CC3)c2c1,6.10
22,CN1CCN(CCCN(Cc2csc(-c3ccc(CNCc4ccccc4)cc3)n2)C(=O)Nc2cc(Cl)cc(Cl)c2)CC1,6.15
23,Cc1ccc(C)c(CN2CCC(CNC(=O)c3cc4ccc5cccnc5c4[nH]3)CC2)c1,6.00
24,CCn1c(-c2nc(-c3ccnc(N4CCN(C)CC4)c3)cnc2N)nc2cc(S(C)(=O)=O)ccc21,6.09

row,SMILES,pIC50
1,Clc1ccc(OCCC2CCN(CCCCCCN3CCCCC3)CC2)cc1Cl,5.94
2,COc1cccc2cc(C(=O)N[C@@H](CC(C)C)C(=O)N[C@H](/C=N/NC(=O)OC(C)(C)C)CC(=O)OC(C)(C)C)oc12,6.40
3,CC(=O)c1sc2ccccc2c1O,6.06
4,CCCCCCCC1CCN(C[C@H](O)c2ccnc3ccc(OC)cc23)CC1,6.02
5,N=C(N)c1cc(Cl)cc(NC(=O)Nc2cc(Cl)cc(C(=N)N)c2)c1,6.14
6,CN(C)CCNCc1cccc(-c2ccc3c(Nc4ccc(F)cc4Cl)ccnc3c2)c1,6.09
7,Cn1c(NC(=O)C2CCCN(C(=O)c3ccc(O)c(-c4ccc(Cl)c(Cl)c4)c3)C2)nc2ccccc21 (stereo not given),6.12
8,COc1ccc(C=C2SC(=N)N(c3ccccc3OC)C2=O)cc1,6.52
9,Cc1ccc(C)c(-n2c(SCC(=O)Nc3ccc(C(N)=O)cc3)nnc2-c2cccc(Cl)c2)c1,6.08
10,Cc1cccc2[nH]c(-c3ccc(-c4cccc(NC(=O)c5cncn5C)c4)cc3)nc12,6.07
11,COc1ccc2ncc(C#N)c(CCN3CCC(NCc4ccc5c(c4)NC(=O)CO5)CC3)c2c1,6.23
12,CCN(CCCN1CCCCC1)c1cc(C)nc(Nc2ccc(C)c(C)c2)n1,5.99
13,CCn1c(-c2cc(C)on2)nc2cnc(Oc3ccc(C(=O)N4CC(=O)N(C)C4C(C)(C)C)cc3)cc21 (stereo not given),5.74
14,O=C(Nc1ccc(Cn2ncc(N3CCCNCC3)c(Cl)c2=O)cc1)Nc1ccc(SC(F)(F)F)cc1,6.28
15,Cc1cc(NN=Cc2cccc([N+](=O)[O-])c2)c2ccccc2n1,6.14
16,O=C(Nc1cccc(C(F)(F)F)c1)c1ccc(S(=O)(=O)NCC2CCN(CC3CCCCC3)CC2)cc1,6.49
17,CC(=O)N1CCC(C(=O)Nc2ccc(-c3cccc(-c4nc5ccc(C(F)(F)F)cc5[nH]4)c3)cc2)CC1,6.62
18,CN1CCN(Cc2cccc(-c3cc4nccc(Nc5ccc(Oc6ccccc6)cc5)c4cc3Cl)c2)CC1,6.14
19,CC1(C)N=C(N)N=C(N)N1OCC1COc2ccccc2O1 (stereo not given),7.52
20,Cc1csc(-c2ncc(OC[C@@H](N)Cc3ccccc3)cc2-c2ccc3n[nH]c(C)c3c2)c1,6.08
21,O=C(NC1CCC(CN2CCC(c3c[nH]c4ccccc34)CC2)CC1)c1csc(-c2cccc(Cl)c2Cl)n1 (stereo not given),5.76
22,O=c1[nH]c(Cc2ccccc2)nc2ccc(Cl)cc12,6.06

# — PubChem BioAssay AID2305 (GlaxoSmithKline (GSK), 2010)
